Measured values from PubChem BioAssay AID1963959 (Molecular Pharmacology Branch, DTP, NCI, 2024).

Tested on: T-47D spheroids with HUVEC/MSC, viability
Assay: Anticancer human tumor T-47D cell line growth inhibition [PI3K];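 further: spheroids exposed to agents for seven days before reading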;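 on viability, T/C: percent of DMSO vehicle control luminescence so 100% = untreated growth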
Details: for viability, T/C: stronger effect = lower value
In short: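 Stroma-containing spheroids: tumor line, pooled-donor HUVEC, hMSC. Treatments: targeted agents with PI3K inhibitors. Dosing: clinically relevant, half-log spacing, 10 microM ceiling without known Cmax. Read-out: cell viability.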

[1] = curve of first compound, second compound 0.0316 µM
[2] = curve of first compound, second compound 0.1 µM
[3] = curve of first compound, second compound 0.316 µM
[4] = curve of first compound, second compound 1 µM
[5] = curve of first compound, second compound 3.16 µM
[6] = curve of first compound, second compound 10 µM
[7] = second compound 0.0316 µM, first compound 0.000316 µM
[8] = second compound 0.0316 µM, first compound 0.001 µM
[9] = second compound 0.0316 µM, first compound 0.00316 µM
[10] = second compound 0.0316 µM, first compound 0.01 µM
[11] = second compound 0.0316 µM, first compound 0.0316 µM
[12] = second compound 0.0316 µM, first compound 0.1 µM
[13] = second compound 0.1 µM, first compound 0.000316 µM
[14] = second compound 0.1 µM, first compound 0.001 µM
[15] = second compound 0.1 µM, first compound 0.00316 µM
[16] = second compound 0.1 µM, first compound 0.01 µM
[17] = second compound 0.1 µM, first compound 0.0316 µM
[18] = second compound 0.1 µM, first compound 0.1 µM
[19] = second compound 0.316 µM, first compound 0.000316 µM
[20] = second compound 0.316 µM, first compound 0.001 µM
[21] = second compound 0.316 µM, first compound 0.00316 µM
[22] = second compound 0.316 µM, first compound 0.01 µM
[23] = second compound 0.316 µM, first compound 0.0316 µM
[24] = second compound 0.316 µM, first compound 0.1 µM
[25] = second compound 1 µM, first compound 0.000316 µM
[26] = second compound 1 µM, first compound 0.001 µM
[27] = second compound 1 µM, first compound 0.00316 µM
[28] = second compound 1 µM, first compound 0.01 µM
[29] = second compound 1 µM, first compound 0.0316 µM
[30] = second compound 1 µM, first compound 0.1 µM
[31] = second compound 3.16 µM, first compound 0.000316 µM
[32] = second compound 3.16 µM, first compound 0.001 µM
[33] = second compound 3.16 µM, first compound 0.00316 µM
[34] = second compound 3.16 µM, first compound 0.01 µM
[35] = second compound 3.16 µM, first compound 0.0316 µM
[36] = second compound 3.16 µM, first compound 0.1 µM
[37] = second compound 10 µM, first compound 0.000316 µM
[38] = second compound 10 µM, first compound 0.001 µM
[39] = second compound 10 µM, first compound 0.00316 µM
[40] = second compound 10 µM, first compound 0.01 µM
[41] = second compound 10 µM, first compound 0.0316 µM
[42] = second compound 10 µM, first compound 0.1 µM

Cc1nc(NC(=O)N2CCCC2C(N)=O)sc1-c1ccnc(C(C)(C)C(F)(F)F)c1 (stereo not given)
viability, T/C (compound 0.0316 µM): 97.8% [middle of 8 runs]
viability, T/C (compound 0.1 µM): 96.2% [middle of 8 runs]
viability, T/C (compound 1 µM): 97.6% [middle of 8 runs]
viability, T/C (compound 3.16 µM): 77% [middle of 7 runs]
viability, T/C (compound 10 µM): 39.9% [middle of 8 runs]
IC50 (compound alone, run of 04/24/2023): 7.37 µM [middle of 8 runs]

CC(C)n1nc(-c2ccc3oc(N)nc3c2)c2c(N)ncnc21 + CC(Nc1ncnc2nc[nH]c12)c1cc2cccc(Cl)c2c(=O)n1-c1ccccc1
IC50 [1]: 70.5 nM
IC50 [2]: 83.5 nM
IC50 [3]: 61.8 nM
IC50 [4]: 72.2 nM
IC50 [5]: 64.3 nM
IC50 [6]: 50.9 nM
viability, T/C [7]: 116%
viability, T/C [8]: 103%
viability, T/C [9]: 98.8%
viability, T/C [10]: 97.3%
viability, T/C [11]: 90%
viability, T/C [12]: 33.1%
viability, T/C [13]: 92.2%
viability, T/C [14]: 76.5%
viability, T/C [15]: 87.8%
viability, T/C [16]: 92.8%
viability, T/C [17]: 79.2%
viability, T/C [18]: 44.6%
viability, T/C [19]: 93.5%
viability, T/C [20]: 107%
viability, T/C [21]: 91.3%
viability, T/C [22]: 104%
viability, T/C [23]: 67.6%
viability, T/C [24]: 37.3%
viability, T/C [25]: 86.4%
viability, T/C [26]: 107%
viability, T/C [27]: 78.4%
viability, T/C [28]: 90%
viability, T/C [29]: 83.7%
viability, T/C [30]: 36.6%
viability, T/C [31]: 99.4%
viability, T/C [32]: 94.2%
viability, T/C [33]: 86.9%
viability, T/C [34]: 76.2%
viability, T/C [35]: 82.2%
viability, T/C [36]: 33.1%
viability, T/C [37]: 95%
viability, T/C [38]: 75.1%
viability, T/C [39]: 80.5%
viability, T/C [40]: 75.6%
viability, T/C [41]: 61.4%
viability, T/C [42]: 35.1%

Cn1ncnc1[C@H]1c2n[nH]c(=O)c3cc(F)cc(c23)N[C@@H]1c1ccc(F)cc1 + CC(Nc1ncnc2nc[nH]c12)c1cc2cccc(Cl)c2c(=O)n1-c1ccccc1
IC50 [1]: > 100 nM
IC50 [2]: > 100 nM
IC50 [3]: > 100 nM
IC50 [4]: > 100 nM
IC50 [5]: > 100 nM
IC50 [6]: > 100 nM
viability, T/C [7]: 86.8%
viability, T/C [8]: 92.8%
viability, T/C [9]: 79.7%
viability, T/C [10]: 94.8%
viability, T/C [11]: 99.6%
viability, T/C [12]: 80.8%
viability, T/C [13]: 110%
viability, T/C [14]: 82.2%
viability, T/C [15]: 99.3%
viability, T/C [16]: 91.5%
viability, T/C [17]: 89.5%
viability, T/C [18]: 93.3%
viability, T/C [19]: 98.1%
viability, T/C [20]: 82.9%
viability, T/C [21]: 90.6%
viability, T/C [22]: 100%
viability, T/C [23]: 85.6%
viability, T/C [24]: 92.1%
viability, T/C [25]: 98.3%
viability, T/C [26]: 89.6%
viability, T/C [27]: 102%
viability, T/C [28]: 74.5%
viability, T/C [29]: 86.5%
viability, T/C [30]: 92.6%
viability, T/C [31]: 86.3%
viability, T/C [32]: 90.2%
viability, T/C [33]: 88.6%
viability, T/C [34]: 83.2%
viability, T/C [35]: 103%
viability, T/C [36]: 96.3%
viability, T/C [37]: 80.7%
viability, T/C [38]: 81.7%
viability, T/C [39]: 83.4%
viability, T/C [40]: 92.3%
viability, T/C [41]: 102%
viability, T/C [42]: 83.7%
